Test results reported in patent US8609695B2, “Methods of treating and/or suppressing insulin resistance” (Endorecherche, Inc., priority 1999, dated 2013).

Experiments:
[1] = test system: ovariectomized female rats; experiment: 34-week treatment with ethynyl estradiol, EM-652.HCl, Raloxifene and DHEA, body fat (Example 7); type: in vivo, rat; details: OVX rats, 34 weeks; for Fat %: DEXA; for Fat % / Left retroperitoneal adipose tissue / Right retroperitoneal adipose tissue: EE2 0.1, Raloxifene 1, EM-652.HCl 1 mg/kg oral, DHEA 80 mg/kg topical
Experimental: The objective of this study was to assess the effect of a combined treatment with EM-652.HCl, and DHEA on body fat and body weight parameters in ovariectomized rats. For this purpose, ovariectomized rats received daily administration of EM-652.HCl (1 mg/kg), and DHEA (80 mg/kg) alone or in combination, for 34 weeks. EM-652.HCl was administered orally while DHEA was applied topically on dorsal skin. One group of animals was orally treated with 17-ethynylestradiol (0.1 mg/kg) and Raloxifene (EM-1105; 1 mg/kg) for comparison.
Ten to twelve week-old female Sprague-Dawley rats (Crl:CD(SD)Br) weighing approximately 235-250 g at start of treatment were used. Eighty rats were randomly distributed between 7 groups of 11 to 12 animals per group as follows: 1) Intact control; 2) OVX control; 3) OVX+EE2 (0.1 mg/kg); 4) OVX+raloxifene (1 mg/kg); 5) OVX+EM-652.HCl (1 mg/kg); 6) OVX+DHEA (80 mg/kg); 7) OVX+EM-652.HCl+DHEA. On day 1 of the study, the animals of the appropriate groups were bilaterally ovariectomized (OVX) under isoflurane anesthesia. EM-652.HCl, raloxifene and EE2 (Steraloids) were administered once daily by oral gavage as suspension in 0.4% methylcellulose (0.5 ml/rat) for 34 weeks while DHEA was applied topically once daily on dorsal skin as a solution in 50% ethanol-50% propylene glycol (0.5 ml/rat) for the same time period. Approximately 24 hours after the last dosing, overnight fasted animals were killed by exsanguination at the abdominal aorta under isoflurane anesthesia. Left and right retroperitoneal adipose tissues were collected and weighed.
After 34 weeks of treatment, individual rats under anesthesia with isoflurane had their whole body skeleton scanned using dual energy x-ray absorptiometry (DEXA; QDR 4500A, Hologic, Waltham, Mass.) and a Regional High Resolution Scan software. The body composition (including fat percentage) was determined.
Data were expressed as the means±SEM.

[2] = test system: intact (INT) and ovariectomized (OVX) female rats; experiment: EM-652.HCl and DHEA, energy balance and lipid-lipoprotein metabolism, high sucrose-high fat diet (Example 9); type: in vivo; details: 20 days, EM-652.HCl 0.5 mg/rat per os, DHEA 20 mg/rat topical
Experimental: The objective of this study was to determine the effects of EM-652.HCl and DHEA, administered alone or in combination, on energy balance and lipid-lipoprotein metabolism in rats. The effect of treatments was evaluated on many parameters following a 20-day treatment with EM-652.HCl (0.5 mg/rat, ˜2.5 mg/kg, per os) and DHEA (20 mg/rat, ˜100 mg/kg, topical application), administered alone or in combination, to intact (INT) and ovariectomized (OVX) female rats receiving a high sucrose-high fat diet. For comparison, one intact and ovariectomized control group received the enriched diet while other control animals (intact and OVX) received the commercial rodent diet.
d) Diet: • During the acclimation period, rats received a commercial rodent diet (Purina, #5075) and tap water ad libitum. During study period, groups 1 & 2 continued to receive the commercial diet while groups 3 to 10 received a high sucrose-high fat diet composed of (g/100 g): Sucrose, 45; Corn oil, 10; Lard, 10; Casein, 22.5; dl-Methionine, 0.3; Vitamin mix, 1.2; AIN-76 mineral mix, 5.5; Fiber, 5.5.44
80 rats were assigned to 10 groups of 8 rats for conduct of the study outlined below.
On day 0 of the study, rats from the appropriate groups were ovariectomized (by bilateral flank incision) under Isoflurane anesthesia. Intact rats were sham-operated.
Administration of the tested compounds or vehicle started the day following the ovariectomy (Day 1). […] Rats from control groups received the vehicle alone (per os and topically). Rats were killed on day 21 of the study approximately 24 hours after the last dosing.
Rats were weighed on day 0 (surgery), every 2 days during the study period and on the day of necropsy. Body weights were recorded with a precision of 1.0 g.
On day 21 of the study, overnight fasted rats were killed approximately 24 hours after the last dosing. They were anesthesized with ketamine-xylazine and blood drawn by cardiac punction.
Blood lipids (Total cholesterol and Triglycerides) were measured on frozen serum samples using the Boehringer Mannheim Diagnostic Hitachi 911 Analyzer (Boehringer Mannheim Diagnostic Laboratory Systems). Circulating hormones and substrates (Insulin, leptin, glucose) were measured on serum samples as follow: • Insulin: Linco RIA kit • Glucose: Beckmann automatic glucose analyser • Leptin: Linco RIA kit Organs and Tissues Collected
The following tissues were collected and weighed for all animals: • Muscle (soleus and VLM), fat (retroperitoneal and inguinal), and brown adipose tissue.
A piece of liver was frozen for later determination of TG and CHOL content (Folchis method) while the other tissues were processed for determination of LPL activity.

Structure (SMILES)	increment of body fat and retroperitoneal adipose tissue by ovariectomy [1]	Fat % [1] [%]	Left retroperitoneal adipose tissue [1] [g]	Right retroperitoneal adipose tissue [1] [g]	Brown adipose tissue Lipoprotein lipase activity ([2]; OVX rats) [μU/g protein]	Brown adipose tissue weight ([2]; OVX rats) [g]	Plasma glucose ([2]; OVX rats) [mmol/L]	Plasma insulin ([2]; OVX rats) [nmol/L]	Plasma leptin ([2]; OVX rats) [ng/mL]	Plasma total cholesterol ([2]; OVX rats) [mmol/L]	Plasma triglycerides ([2]; OVX rats) [mmol/L]	Soleus muscle Lipoprotein lipase activity ([2]; OVX rats) [μU/g protein]	Soleus muscle weight ([2]; OVX rats) [g]	Total weight ([2]; OVX rats) [g]	VastusLateralis muscle Lipoprotein lipase activity ([2]; OVX rats) [μU/g protein]	VastusLateralis muscle weight ([2]; OVX rats) [g]	White adipose tissue inguinal Lipoprotein lipase activity ([2]; OVX rats) [μU/g protein]	White adipose tissue inguinal weight ([2]; OVX rats) [g]	White adipose tissue retroperitoneal Lipoprotein lipase activity ([2]; OVX rats) [μU/g protein]	White adipose tissue retroperitoneal weight ([2]; OVX rats) [g]	other results
C[C@]12CC[C@H](O)CC1=CC[C@@H]1[C@@H]2CC[C@]2(C)C(=O)CC[C@@H]12 [DHEA, dehydroepiandrosterone]	prevented	26.8 ± 2.3	1.98 ± 0.17	2.16 ± 0.25	1069 ± 96	0.342 ± 0.049	8.64 ± 0.24	0.052 ± 0.009	2.757 ± 0.631	1.57 ± 0.12	0.62 ± 0.08	45.9 ± 4.7	0.103 ± 0.005	274 ± 9	13.1 ± 5.4	0.920 ± 0.049	583 ± 134	0.885 ± 0.156	1905 ± 112	1.699 ± 0.151	liver total cholesterol ([2]; OVX rats): 0.079 ± 0.005 mmol/L; liver triglycerides ([2]; OVX rats): 0.165 ± 0.047 mmol/L; Brown adipose tissue Lipoprotein lipase activity ([2]; sham rats): 982 ± 72 μU/g protein; Brown adipose tissue weight ([2]; sham rats): 0.373 ± 0.036 g; Plasma glucose ([2]; sham rats): 8.05 ± 0.51 mmol/L; Plasma insulin ([2]; sham rats): 0.048 ± 0.012 nmol/L; Plasma leptin ([2]; sham rats): 1.977 ± 0.255 ng/mL; Plasma total cholesterol ([2]; sham rats): 1.59 ± 0.17 mmol/L; Plasma triglycerides ([2]; sham rats): 0.61 ± 0.11 mmol/L; Soleus muscle Lipoprotein lipase activity ([2]; sham rats): 53.6 ± 7.5 μU/g protein; Soleus muscle weight ([2]; sham rats): 0.105 ± 0.004 g; Total weight ([2]; sham rats): 252 ± 5 g; VastusLateralis muscle Lipoprotein lipase activity ([2]; sham rats): 11.5 ± 2.0 μU/g protein; VastusLateralis muscle weight ([2]; sham rats): 0.893 ± 0.043 g; White adipose tissue inguinal Lipoprotein lipase activity ([2]; sham rats): 194 ± 45 μU/g protein; White adipose tissue inguinal weight ([2]; sham rats): 0.659 ± 0.075 g; White adipose tissue retroperitoneal Lipoprotein lipase activity ([2]; sham rats): 1177 ± 188 μU/g protein; White adipose tissue retroperitoneal weight ([2]; sham rats): 1.067 ± 0.149 g; liver total cholesterol ([2]; sham rats): 0.068 ± 0.003 mmol/L; liver triglycerides ([2]; sham rats): 0.038 ± 0.007 mmol/L
CC1=C(c2ccc(O)cc2)[C@H](c2ccc(OCCN3CCCCC3)cc2)Oc2cc(O)ccc21.Cl [EM-652.HCl, (S)-(+)-7-hydroxy-3-(4′-hydroxyphenyl)-4-methyl-2-(4″-(2′″-piperidino-ethoxy)phenyl)-2H-1-benxopyran hydrochloride]	prevented	27.7 ± 1.8	2.19 ± 0.28	2.07 ± 0.18	678 ± 65	0.408 ± 0.025	9.06 ± 0.30	0.089 ± 0.013	1.989 ± 0.326	1.15 ± 0.11	0.97 ± 0.16	39.1 ± 5.0	0.104 ± 0.004	268 ± 5	10.8 ± 3.2	0.944 ± 0.030	310 ± 63	0.709 ± 0.085	1612 ± 186	1.370 ± 0.211	liver total cholesterol ([2]; OVX rats): 0.092 ± 0.006 mmol/L; liver triglycerides ([2]; OVX rats): 0.348 ± 0.078 mmol/L; Brown adipose tissue Lipoprotein lipase activity ([2]; sham rats): 1196 ± 83 μU/g protein; Brown adipose tissue weight ([2]; sham rats): 0.306 ± 0.044 g; Plasma glucose ([2]; sham rats): 9.03 ± 0.49 mmol/L; Plasma insulin ([2]; sham rats): 0.057 ± 0.004 nmol/L; Plasma leptin ([2]; sham rats): 2.019 ± 0.402 ng/mL; Plasma total cholesterol ([2]; sham rats): 1.15 ± 0.06 mmol/L; Plasma triglycerides ([2]; sham rats): 0.60 ± 0.12 mmol/L; Soleus muscle Lipoprotein lipase activity ([2]; sham rats): 53.9 ± 3.3 μU/g protein; Soleus muscle weight ([2]; sham rats): 0.098 ± 0.005 g; Total weight ([2]; sham rats): 238 ± 5 g; VastusLateralis muscle Lipoprotein lipase activity ([2]; sham rats): 16.2 ± 3.1 μU/g protein; VastusLateralis muscle weight ([2]; sham rats): 0.965 ± 0.034 g; White adipose tissue inguinal Lipoprotein lipase activity ([2]; sham rats): 160 ± 23 μU/g protein; White adipose tissue inguinal weight ([2]; sham rats): 0.435 ± 0.043 g; White adipose tissue retroperitoneal Lipoprotein lipase activity ([2]; sham rats): 1277 ± 56 μU/g protein; White adipose tissue retroperitoneal weight ([2]; sham rats): 1.058 ± 0.162 g; liver total cholesterol ([2]; sham rats): 0.096 ± 0.011 mmol/L; liver triglycerides ([2]; sham rats): 0.360 ± 0.102 mmol/L
